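Where inhibition never reached the appropriate level, the endpoint shown equals the highest concentration tested. Otherwise, values were interpolated linearly from a five-concentration, 48-hour dose response in 96-well plates. GI50 marks 50% less growth. TGI marks complete inhibition of growth.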
How the values were obtained:
Assay in all cases: NCI tumour cell line growth inhibition, 48 h
[1] = system: IGROV1 ovarian
[2] = system: K-562 leukemia
[3] = system: MALME-3M melanoma
[4] = system: NCI-H522 lung
[5] = system: SK-MEL-2 melanoma
[6] = system: OVCAR-3 ovarian
[7] = system: A549 NSCLC
[8] = system: CAKI-1 renal
[9] = system: KM12 colon
[10] = system: HL-60(TB) leukemia
[11] = system: SF-268 CNS
[12] = system: RPMI-8226 leukemia
[13] = system: MDA-MB-231 breast
[14] = system: LOX IMVI melanoma
[15] = system: EKVX NSCLC
[16] = system: UACC-62 melanoma
[17] = system: HCT-15 colon
[18] = system: DU-145 prostate
[19] = system: SK-OV-3 ovarian
[20] = system: HT29 colon
[21] = system: T-47D breast
[22] = system: CCRF-CEM leukemia
[23] = system: SN12C renal
[24] = system: 786-0 renal
[25] = system: MDA-MB-435
[26] = system: RXF 393 renal
[27] = system: OVCAR-4 ovarian
[28] = system: OVCAR-5 ovarian
[29] = system: HOP-62 NSCLC
[30] = system: SF-295 CNS
[31] = system: M14 melanoma
[32] = system: PC-3 prostate
[33] = system: MCF7 breast
[34] = system: MOLT-4 leukemia
[35] = system: OVCAR-8 ovarian
[36] = system: SK-MEL-28 melanoma
[37] = system: ACHN renal
[38] = system: COLO 205 colon
[39] = system: SF-539 CNS
[40] = system: U251 CNS
[41] = system: UO-31 renal
[42] = system: NCI-H460 lung
[43] = system: NCI-H226 lung
[44] = system: NCI/ADR-RES ovarian
[45] = system: HOP-92 NSCLC
[46] = system: SNB-75 CNS
[47] = system: HCT-116 colon
[48] = system: SW-620 colon
[49] = system: HCC-2998 colon
[50] = system: BT-549 breast
[51] = system: TK-10 renal
[52] = system: NCI-H23 lung
[53] = system: A498 renal
[54] = system: SNB-19 CNS
[55] = system: UACC-257 melanoma
[56] = system: SK-MEL-5 melanoma
[57] = system: HS 578T breast

## CCOC(=O)CCc1c(C(=O)OCC)[nH]c(/C=C2\NC(=O)C(C)=C2CC)c1C
[1]
  TGI: 23.7 µM
[2]
  TGI: > 100 µM
[3]
  TGI: 41.1 µM
[4]
  TGI: 30.7 µM
[5]
  TGI: 42.5 µM
[6]
  TGI: 49.6 µM
[7]
  TGI: > 100 µM
[8]
  TGI: 78.7 µM
[9]
  TGI: > 100 µM
[10]
  TGI: > 100 µM
[11]
  TGI: 92.1 µM
[12]
  TGI: > 100 µM
[13]
  TGI: 52.6 µM
[14]
  TGI: > 100 µM
[15]
  TGI: 50.3 µM
[16]
  TGI: 44.9 µM
[17]
  TGI: > 100 µM
[18]
  TGI: 55.6 µM
[19]
  TGI: 48.3 µM
[20]
  TGI: > 100 µM
[21]
  TGI: 26 µM
[22]
  TGI: > 100 µM
[23]
  TGI: > 100 µM
[24]
  TGI: 27.5 µM
[25]
  TGI: > 100 µM
[26]
  TGI: 49 µM
[27]
  TGI: 59.4 µM
[28]
  TGI: 86.3 µM
[29]
  TGI: 27.6 µM
[30]
  TGI: 41.3 µM
[31]
  TGI: > 100 µM
[32]
  TGI: 63.3 µM
[33]
  TGI: > 100 µM
[34]
  TGI: > 100 µM
[35]
  TGI: 18.9 µM
[36]
  TGI: > 100 µM
[37]
  TGI: 41.2 µM
[38]
  TGI: > 100 µM
[39]
  TGI: 69.6 µM
[40]
  TGI: 33.9 µM
[41]
  TGI: > 100 µM
[42]
  TGI: > 100 µM
[43]
  TGI: > 100 µM
[44]
  TGI: 32.4 µM
[45]
  TGI: 45.1 µM
[46]
  TGI: 27.8 µM
[47]
  TGI: > 100 µM

## Cc1ccc2c[c]1[Hg][CH2]COS2(=O)=O
[1]
  GI50: 5.3 µM
  TGI: 20.7 µM
[2]
  GI50: 16.4 µM
  TGI: 41.2 µM
[3]
  GI50: 19.8 µM
  TGI: 34 µM
[48]
  GI50: 17.8 µM
  TGI: 31.6 µM
[4]
  GI50: 22.6 µM
  TGI: 42.8 µM
[5]
  GI50: 21.4 µM
  TGI: 38.4 µM
[7]
  GI50: > 100 µM
  TGI: > 100 µM
[10]
  GI50: 21.8 µM
  TGI: 42.1 µM
[11]
  GI50: 18 µM
  TGI: 32.4 µM
[49]
  GI50: 15.7 µM
  TGI: 34.5 µM
[50]
  GI50: 17.8 µM
  TGI: 31.6 µM
[13]
  GI50: 17.5 µM
  TGI: 32 µM
[14]
  GI50: 18.5 µM
  TGI: 36.4 µM
[51]
  GI50: 17.8 µM
  TGI: 31.7 µM
[52]
  GI50: 23.4 µM
  TGI: 49.2 µM
[15]
  GI50: 21.5 µM
  TGI: 38.5 µM
[16]
  GI50: 17.2 µM
  TGI: 30.9 µM
[17]
  GI50: 16.4 µM
  TGI: 30 µM
[18]
  GI50: 18.8 µM
  TGI: 32.8 µM
[19]
  GI50: > 100 µM
  TGI: > 100 µM
[20]
  GI50: 17.9 µM
  TGI: 31.8 µM
[21]
  GI50: 15 µM
  TGI: 29.7 µM
[23]
  GI50: 17.2 µM
  TGI: 30.9 µM
[24]
  GI50: 18.1 µM
  TGI: 32 µM
[25]
  GI50: 24.7 µM
  TGI: 39.4 µM
[26]
  GI50: 15.9 µM
  TGI: 29.3 µM
[27]
  GI50: 11.3 µM
  TGI: 23.4 µM
[28]
  GI50: 18.7 µM
  TGI: 37.4 µM
[29]
  GI50: 71.7 µM
  TGI: > 100 µM
[53]
  GI50: 15.8 µM
  TGI: 29.3 µM
[31]
  GI50: 17.4 µM
  TGI: 31.2 µM
[32]
  GI50: 18.3 µM
  TGI: 32.4 µM
[33]
  GI50: 17.9 µM
  TGI: 39.4 µM
[34]
  GI50: 18.1 µM
  TGI: 34.1 µM
[35]
  GI50: 16 µM
  TGI: 29.5 µM
[36]
  GI50: 16.4 µM
  TGI: 29.9 µM
[37]
  GI50: 16.2 µM
  TGI: 29.7 µM
[54]
  GI50: > 100 µM
  TGI: > 100 µM
[38]
  GI50: 18.8 µM
  TGI: 32.8 µM
[39]
  GI50: 18 µM
  TGI: 32.5 µM
[40]
  GI50: 17.5 µM
  TGI: 31.3 µM
[41]
  GI50: 17.3 µM
  TGI: 31 µM
[42]
  GI50: > 100 µM
  TGI: > 100 µM
[55]
  GI50: 16.4 µM
  TGI: 29.9 µM
[43]
  GI50: 19.8 µM
  TGI: 43.5 µM
[44]
  GI50: 25 µM
  TGI: 62.1 µM
[56]
  GI50: 16.7 µM
  TGI: 30.3 µM
[45]
  GI50: 19.5 µM
  TGI: 38.3 µM
[57]
  GI50: 23.7 µM
  TGI: 58.1 µM
[46]
  GI50: > 100 µM
  TGI: > 100 µM
[47]
  GI50: 16.6 µM
  TGI: 30.2 µM

— PubChem BioAssay (NCI)
